What was measured:
[1] = biological target: T1, BTK enzyme (recombinant full-length BTK, hBTK) (Homo sapiens, UniProt Q06187); experiment: BTK enzyme activity assay, LANCE TR-FRET; assay type: biochemical; conditions: 50 pM hBTK, 2 μM biotin-A5-peptide, 25 μM ATP; 60 min compound & enzyme incubation; read-out: IC50 BTK activity value
T1 construct: recombinant protein from baculovirus-transfected Sf9 cells: full-length BTK, 6HIS-tag cleaved; 6HIS (cleaved yes); made in house; host or cells: baculovirus-transfected Sf9 cells
T1 sequence (Q06187 whole entry): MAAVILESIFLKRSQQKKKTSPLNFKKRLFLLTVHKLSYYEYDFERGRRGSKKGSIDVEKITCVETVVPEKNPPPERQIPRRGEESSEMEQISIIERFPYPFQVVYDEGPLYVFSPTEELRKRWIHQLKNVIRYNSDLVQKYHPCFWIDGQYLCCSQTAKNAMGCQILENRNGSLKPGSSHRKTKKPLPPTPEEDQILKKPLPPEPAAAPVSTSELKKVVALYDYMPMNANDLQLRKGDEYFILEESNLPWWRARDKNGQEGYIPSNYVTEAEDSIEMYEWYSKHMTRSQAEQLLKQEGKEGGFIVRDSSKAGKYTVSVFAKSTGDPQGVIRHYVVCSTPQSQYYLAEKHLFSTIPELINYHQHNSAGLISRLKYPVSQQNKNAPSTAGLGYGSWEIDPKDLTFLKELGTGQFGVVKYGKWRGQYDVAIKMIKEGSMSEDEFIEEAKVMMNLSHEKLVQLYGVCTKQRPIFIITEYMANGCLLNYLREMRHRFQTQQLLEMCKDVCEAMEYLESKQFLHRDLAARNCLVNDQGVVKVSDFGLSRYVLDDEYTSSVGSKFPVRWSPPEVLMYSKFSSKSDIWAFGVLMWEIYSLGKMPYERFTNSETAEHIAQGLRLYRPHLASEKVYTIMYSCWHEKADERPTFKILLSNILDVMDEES

[2] = tested on: HeLa cells; experiment: [3H]Adenosine uptake functional cellular assay; assay type: cell-based; conditions: Homo sapiens, HeLa, accumulation of [3H]adenosine into HeLa cells; compound range 10 μM to […]; read-out: Adenosine uptake inhibition IC50
How it was run: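 Inhibition of adenosine uptake was measured in HeLa cells (ATCC CCL-2) by following accumulation of tritiated adenosine. Cells were kept overnight at 37° C. with 5% (v/v) CO2, then switched to 40 μL HBSS plus 5% (v/v) FBS. 20 μL of 500 nM [3H]adenosine was added, and uptake was counted on a Topcount NXT reader.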

IC50 [1] [µM]	IC50 [2] [µM]	Compound
0.00064	0.47	Cn1nc(NC(=O)c2ccc(-c3nc([C@@H]4CC[C@H]5CCC(=O)N5C4)n4c(Cl)cnc(N)c34)cc2)cc1C(F)(F)F [Example 183, 4-(8-amino-5-chloro-3-((6R,8aS)-3-oxooctahydroindolizin-6-yl)imidazo[1,5-a]pyrazin-1-yl)-N-(1-methyl-5-(trifluoromethyl)-1H-pyrazol-3-yl)benzamide]
0.237	5.39	CCn1nc(NC(=O)c2ccc(-c3nc([C@@H]4CC[C@H]5CCC(=O)N5C4)n4ccnc(N)c34)cc2)cc1C(F)(F)F [Example 185, 4-{8-amino-3-[(6R,8aS)-3-oxooctahydroindolizin-6-yl]imidazo[1,5-a]pyrazin-1-yl}-N-[1-ethyl-5-(trifluoromethyl)-1H-pyrazol-3-yl]benzamide]
0.00046	0.31	Cc1cc(C(=O)Nc2cc(C(F)(F)F)ccn2)ccc1-c1nc([C@@H]2CC[C@H]3CCC(=O)N3C2)n2ccnc(N)c12 [Example 187, 4-{8-amino-3-[(6R,8aS)-3-oxooctahydroindolizin-6-yl]imidazo[1,5-a]pyrazin-1-yl}-3-methyl-N-[4-(trifluoromethyl)pyridin-2-yl]benzamide]
0.0027	3.69	COc1cc(C(=O)Nc2cc(C(F)(F)F)n(C)n2)ccc1-c1nc([C@@H]2CC[C@H]3CCC(=O)N3C2)n2ccnc(N)c12 [Example 188, 4-{8-amino-3-[(6R,8aS)-3-oxooctahydroindolizin-6-yl]imidazo[1,5-a]pyrazin-1-yl}-3-methoxy-N-[1-methyl-5-(trifluoromethyl)-1H-pyrazol-3-yl]benzamide]
0.0015	1.55	COc1cc(C(=O)Nc2cc(C(F)(F)F)n(C)n2)ccc1-c1nc([C@@H]2CC[C@H]3CCC(=O)N3C2)n2c(Cl)cnc(N)c12 [Example 189, 4-{8-amino-5-chloro-3-[(6R,8aS)-3-oxooctahydroindolizin-6-yl]imidazo[1,5-a]pyrazin-1-yl}-3-methoxy-N-[1-methyl-5-(trifluoromethyl)-1H-pyrazol-3-yl]benzamide]
0.0022	0.31	Cn1nc(NC(=O)c2ccc(-c3nc([C@@H]4CC[C@H]5CCC(=O)N5C4)n4ccnc(N)c34)c(Cl)c2)cc1C(F)(F)F [Example 190, 4-{8-amino-3-[(6R,8aS)-3-oxooctahydroindolizin-6-yl]imidazo[1,5-a]pyrazin-1-yl}-3-chloro-N-[1-methyl-5-(trifluoromethyl)-1H-pyrazol-3-yl]benzamide]
0.0019	0.995	Cn1nc(NC(=O)c2ccc(-c3nc([C@@H]4CC[C@H]5CCC(=O)N5C4)n4c(Cl)cnc(N)c34)c(Cl)c2)cc1C(F)(F)F [Example 191, 4-{8-amino-5-chloro-3-[(6R,8aS)-3-oxooctahydroindolizin-6-yl]imidazo[1,5-a]pyrazin-1-yl}-3-chloro-N-[1-methyl-5-(trifluoromethyl)-1H-pyrazol-3-yl]benzamide]
0.0246	0.408	Cn1nc(NC(=O)c2cc(Cl)c(-c3nc([C@@H]4CC[C@H]5CCC(=O)N5C4)n4c(Cl)cnc(N)c34)cc2F)cc1C(F)(F)F [Example 192, 4-{8-amino-5-chloro-3-[(6R,8aS)-3-oxooctahydroindolizin-6-yl]imidazo[1,5-a]pyrazin-1-yl}-5-chloro-2-fluoro-N-[1-methyl-5-(trifluoromethyl)-1H-pyrazol-3-yl]benzamide]
0.00039	0.226	Nc1ncc(Cl)n2c([C@@H]3CC[C@H]4CCC(=O)N4C3)nc(-c3ccc(C(=O)Nc4cc(C(F)(F)F)ccn4)cc3Cl)c12 [Example 194, 4-{8-amino-5-chloro-3-[(6R,8aS)-3-oxooctahydroindolizin-6-yl]imidazo[1,5-a]pyrazin-1-yl}-3-chloro-N-[4-(trifluoromethyl)pyridin-2-yl]benzamide]
0.0032	5.89	CCOCCOc1cc(C(=O)Nc2cc(C(F)(F)F)ccn2)ccc1-c1nc([C@@H]2CC[C@H]3CCC(=O)N3C2)n2ccnc(N)c12 [Example 201, 4-{8-amino-3-[(6R,8aS)-3-oxooctahydroindolizin-6-yl]imidazo[1,5-a]pyrazin-1-yl}-3-(2-ethoxyethoxy)-N-[4-(trifluoromethyl)pyridin-2-yl]benzamide]
0.0017	1.73	COc1cc(C(=O)Nc2ncc(C)s2)ccc1-c1nc([C@@H]2CC[C@H]3CCC(=O)N3C2)n2c(Cl)cnc(N)c12 [Example 203, 4-{8-amino-5-chloro-3-[(6R,8aS)-3-oxooctahydroindolizin-6-yl]imidazo[1,5-a]pyrazin-1-yl}-3-methoxy-N-(5-methyl-1,3-thiazol-2-yl)benzamide]
0.0012	2.36	CCOc1cc(C(=O)Nc2cc(C(F)(F)F)n(C)n2)ccc1-c1nc([C@@H]2CC[C@H]3CCC(=O)N3C2)n2c(C)cnc(N)c12 [Example 205, 4-{8-amino-5-methyl-3-[(6R,8aS)-3-oxooctahydroindolizin-6-yl]imidazo[1,5-a]pyrazin-1-yl}-3-ethoxy-N-[1-methyl-5-(trifluoromethyl)-1H-pyrazol-3-yl]benzamide]

Further lines, the compound ahead of its results:

Compound	IC50 [1] [µM]	IC50 [2] [µM]
CCc1nsc(NC(=O)c2ccc(-c3nc([C@@H]4CC[C@H]5CCC(=O)N5C4)n4ccnc(N)c34)cc2)n1 [Example 178, 4-{8-amino-3-[(6R,8aS)-3-oxooctahydroindolizin-6-yl]imidazo[1,5-a]pyrazin-1-yl}-N-(3-ethyl-1,2,4-thiadiazol-5-yl)benzamide]	0.0276	5.49
CC(C)c1nsc(NC(=O)c2ccc(-c3nc([C@@H]4CC[C@H]5CCC(=O)N5C4)n4ccnc(N)c34)cc2)n1 [Example 179, 4-{8-amino-3-[(6R,8aS)-3-oxooctahydroindolizin-6-yl]imidazo[1,5-a]pyrazin-1-yl}-N-[3-(1-methylethyl)-1,2,4-thiadiazol-5-yl]benzamide]	0.0689	2.37
Nc1nccn2c([C@@H]3CC[C@H]4CCC(=O)N4C3)nc(-c3ccc(C(=O)Nc4cc(C(F)(F)F)n(C5CCCC5)n4)cc3)c12 [Example 180, 4-{8-amino-3-[(6R,8aS)-3-oxooctahydroindolizin-6-yl]imidazo[1,5-a]pyrazin-1-yl}-N-[1-cyclopentyl-5-(trifluoromethyl)-1H-pyrazol-3-yl]benzamide]	0.285	0.23
Cc1nnc(NC(=O)c2ccc(-c3nc([C@@H]4CC[C@H]5CCC(=O)N5C4)n4ccnc(N)c34)cc2)s1 [Example 182, 4-{8-amino-3-[(6R,8aS)-3-oxooctahydroindolizin-6-yl]imidazo[1,5-a]pyrazin-1-yl}-N-(5-methyl-1,3,4-thiadiazol-2-yl)benzamide]	0.272	3.61
Nc1nccn2c([C@@H]3CC[C@H]4CCC(=O)N4C3)nc(-c3cc(F)c(C(=O)Nc4cc(C(F)(F)F)ccn4)cc3Cl)c12 [Example 193, 4-{8-amino-3-[(6R,8aS)-3-oxooctahydroindolizin-6-yl]imidazo[1,5-a]pyrazin-1-yl}-5-chloro-2-fluoro-N-[4-(trifluoromethyl)pyridin-2-yl]benzamide]	0.0046	0.213
Cc1cnc(NC(=O)c2ccc(-c3nc([C@@H]4CC[C@H]5CCC(=O)N5C4)n4ccnc(N)c34)c(Cl)c2)s1 [Example 195, 4-(8-amino-3-((6R,8aS)-3-oxooctahydroindolizin-6-yl)imidazo[1,5-a]pyrazin-1-yl)-3-chloro-N-(5-methylthiazol-2-yl)benzamide]	0.00063	0.175
Cc1cnc(NC(=O)c2ccc(-c3nc([C@@H]4CC[C@H]5CCC(=O)N5C4)n4c(Cl)cnc(N)c34)c(Cl)c2)s1 [Example 196, 4-(8-amino-5-chloro-3-((6R,8aS)-3-oxooctahydroindolizin-6-yl)imidazo[1,5-a]pyrazin-1-yl)-3-chloro-N-(5-methylthiazol-2-yl)benzamide]	0.0015	0.741
Cc1cc(C(=O)Nc2cc(C(F)(F)F)ccn2)c(F)cc1-c1nc([C@@H]2CC[C@H]3CCC(=O)N3C2)n2c(Cl)cnc(N)c12 [Example 197, 4-(8-amino-5-chloro-3-((6R,8aS)-3-oxooctahydroindolizin-6-yl)imidazo[1,5-a]pyrazin-1-yl)-2-fluoro-5-methyl-N-(4-(trifluoromethyl)pyridin-2-yl)benzamide]	0.0078	0.199
Cc1cc(C(=O)Nc2cc(C(F)(F)F)ccn2)c(F)cc1-c1nc([C@@H]2CC[C@H]3CCC(=O)N3C2)n2ccnc(N)c12 [Example 198, 4-(8-amino-3-((6R,8aS)-3-oxooctahydroindolizin-6-yl)imidazo[1,5-a]pyrazin-1-yl)-2-fluoro-5-methyl-N-(4-(trifluoromethyl)pyridin-2-yl)benzamide]	0.0082	0.252
COc1cc(C(=O)Nc2ncc(C)s2)ccc1-c1nc([C@@H]2CC[C@H]3CCC(=O)N3C2)n2ccnc(N)c12 [Example 202, 4-{8-amino-3-[(6R,8aS)-3-oxooctahydroindolizin-6-yl]imidazo[1,5-a]pyrazin-1-yl}-3-methoxy-N-(5-methyl-1,3-thiazol-2-yl)benzamide]	0.0052	6.88
C#CCCOc1cc(C(=O)Nc2cc(C(F)(F)F)ccn2)ccc1-c1nc([C@@H]2CC[C@H]3CCC(=O)N3C2)n2ccnc(N)c12 [Example 204, 4-{8-amino-3-[(6R,8aS)-3-oxooctahydroindolizin-6-yl]imidazo[1,5-a]pyrazin-1-yl}-3-(but-3-yn-1-yloxy)-N-[4-(trifluoromethyl)pyridin-2-yl]benzamide]	0.00075	1.39

Source: patent publication US20140206681A1, “BTK INHIBITORS” (priority 2013, published 2014)
